The values that follow come from patent US8748369B2, “Use of targeted nitroxide agents in bone healing” (University of Pittsburgh-Of the Commonwealth System of …, priority 2009, dated 2014).

Where a SMILES comes first, the peptide text is derived from it. [ ]: non-standard residue; d: D form. The star is where a group is joined. NH(TEMPO-4-yl) = CC1(C)CC(N*)CC(C)(C)N1[O]; Orn = NCCC[C@H](N)C(=O)O; Cbz = O=C(OCc1ccccc1)*; Boc = CC(C)(C)OC(=O)*

One data set is described as follows: Solubility in water. It counts as physicochemical. From the text: All compositions are sterile filtered (e.g.) using a 0.2 micron filter (non sterile). • A. 0.1% DMSO 99.9% and RMPI 1640. Comments: with the low water solubility of JP4-039, DMSO is used in vitro experiments since it is a universal solvent which has been used in radiation biology experiments without any toxic effects. • B. 10% CrEL(Cremophor EL), 10% ethanol and 80% DI water. […] This formula dissolves the JP4-039. • C. Suspension of JP4-039 in F14 emulsion: Comments: F14 is a mixture of sesame oil, egg-phosphatidyl choline, Tween 80, and Span85 at ratios of 1:0.5:0.25:0.25 w/w, respectively. […] Comments: Sesame Seed Oil (100 mg/ml), Soy Phosphatidyl […] (50 mg/ml), JP4-039 (2 mg/ml), and Phosphate Buffered Saline. • Low dose (JP4-039): 5 mg/kg, 0.5 mg/ml. • Medium dose (JP4-039): 10 mg.kg, 1.0 mg/ml. • High dose (JP4-039): 20 mg/kg, 2.0 mg/ml. • Placebo/Vehicle (JP4-039): 0 mg/kg, 0 ing/ml • Exemplary dose (mouse): 200 μl of volume • E. JP4-039 dissolved in a solution of 45% 2-hydroxypropyl-β-cyclodextrin and 55% water. Comments: Cyclodextrins have a hydrophobic interior which compounds such as JP4-039 can complex in a rapid and reversible reaction. P-cyclodextrins have a cavity with an inner diameter of approximately 7.5 Å which is well suited for JP4-039.

The test system of data set [1] is mouse embryonic cells (MEC). Kind of data set: ActD-induced apoptosis in MECs (PS externalization, caspase-3, DNA fragmentation). It counts as cell-based. From the text:
Cells that annexin V-positive and PI-negative were considered apoptotic.

The subject of data set [2] is mouse embryonic cells. Nature of the data set: Gamma irradiation induced apoptosis (cytochrome c release, PS externalization). Format: cell-based. As for the experimental part:
Externalization of PS was analyzed by flow cytometry using annexin-V kit. Briefly, harvested cells were stained with annexin-V-FITC and PI for 5 min in dark prior to flow cytometry analysis. Ten thousand events were collected on a FACScan flow cytometer (Becton-Dickinson) supplied with CellQuest software.
(A) XJB-5-125 blocks γ-irradiation induced accumulation of cytochrome c in the cytosol of mouse embryonic cells. (B) Densitometry ratio of cytochrome c/actin. Semi-quantitation of the bands was carried out by densitometry using Labworks Image Acquisition and Analysis Software (UVP, Upland, Calif.). The level of cytochrome c release was expressed as the mean densitometry ratio of cytochrome c over actin. (C) Dose (5, 10 and 20 μM) dependent radioprotective effect of XJB-5-125 (pre-treatment) on γ-irradiation (10 Gy) induced phosphatidylserine (PS) externalization. After 48 h post-irradiation incubation, cells were harvested and stained with annexin-V-FITC and propodium iodide (PI) prior to flow cytometry analysis. (D) Time (2, 3, 4, 5, and 6 h) dependent radioprotective effect of XJB-5-125 (20 μM) on γ-irradiation (10 Gy) induced PS externalization (48 h post irradiation) in mouse embryonic cells. […] Externalization of PS was analyzed 72 h post-irradiation exposure. […]

The subject of data set [3] is mouse embryonic cells. Kind of data set: Gamma irradiation induced superoxide generation and cardiolipin oxidation. Format: cell-based. As to conditions: 10 Gy, 20 μM. As for the experimental part:
Oxidation-dependent fluorogenic dye, DHE was used to evaluate intracellular production of superoxide radicals. DHE is cell permeable and, in the presence of superoxide, is oxidized to fluorescent ethidium which intercalates into DNA. Briefly, cells were treated with 5 μM DHE for 30 min at the end of incubation. Cells were then collected by trypsinization and resuspended in PBS. The fluorescence of ethidium was measured using a FACScan flow cytometer (Becton-Dickinson, Rutherford, N.J.) supplied with the CellQuest software. Mean fluorescence intensity from 10,000 cells was acquired using a 585/42 nm bandpass filter.
CL hydroperoxides were determined by fluorescence HPLC of products formed in MP-11-catalyzed reaction with a fluorogenic substrate, Amplex Red. […] Shimadzu LC-100AT vp HPLC system equipped with fluorescence detector (RF-10Axl, Ex/Em=560/590 nm) and autosampler (SIL-10AD vp) were used for the analysis of products separated by HPLC (Eclipse XDB-C18 column, 5 μm, 150×4.6 mm) Mobile phase was composed of NaH2PO4 (25 mM, pH 7.0)/methanol (60:40 v/v).
(A) superoxide generation. […] Ethidium fluorescence was analyzed using a FACScan flow cytometer supplied with CellQuest software. Mean fluorescence intensity from 10,000 cells was acquired using a 585-nm bandpass filter. […] Cardiolipin hydroperoxides were determined using a fluorescent HPLC-based Amplex Red assay. […]

Data set [4] has as its system mouse embryonic cells, mitochondria. Kind of data set: EPR-based analysis of integration and distribution of nitroxides (Example 9). As to conditions: 10 μM nitroxides for 10 min. Format: cell-based. The method, then: To compare the integration efficiency, mouse embryonic cells (1×10^7/mL) were incubated with 10 μM nitroxides for 10 min. ESR spectra of nitroxide radicals in the incubation medium, cell suspension or mitochondrial suspension were recorded after mixing with acetonitrile (1:1 v/v) after 5-min incubation with 2 mM K3Fe(CN)6 using JEOL-RE1X EPR spectrometer under the following conditions: 3350 G center field; 25 G scan range; 0.79 G field modulation, 20 mW microwave power; 0.1 s time constant; 4 min scan time. Integration efficiency was calculated as (Einitial−Emedium)/Einitial×100%. Mitochondria were isolated using a mitochondria isolation kit (Pierce, Rockford, Ill.) according to the manufacturer's instruction. Amounts of nitroxide radicals integrated into mitochondria were normalized to the content of cytochrome c oxidase subunit IV.

`CC(C)C[C@@H](/C=C/CC(=O)NC1CC(C)(C)N([O])C(C)(C)C1)NC(=O)OC(C)(C)C` [JP4-039, (S,E)-5-(tert-Butoxycarbonylamino)-7-methyloct-3-enoic acid-TEMPO]: the solubility in water entry in “Solubility in water” is “low solubility in water”.
In the case of `CC(C)C[C@H](NC(=O)OC(C)(C)C)C(=O)N[C@H](Cc1ccccc1)C(=O)N1CCC[C@H]1C(=O)N[C@H](C(=O)N[C@@H](CCCNC(=O)OCc1ccccc1)C(=O)NC1CC(C)(C)N([O])C(C)(C)C1)C(C)C` [XJB-5-125] (Boc-L[dF]PV[Orn](Cbz)-{NH(TEMPO-4-yl)}), in data set [1], the “concentration range of activity in cells (dose-dependent attenuation of ActD-induced PS externalization)” value lay in the range of 2.5 to 20 µM. Further, the “gamma irradiation induced apoptosis” value in the data set with mouse embryonic cells [2] (10 Gy) is given as “protects”. For the same compound, in the data set on mouse embryonic cells [2] (mouse embryonic cells), the “γ-irradiation induced accumulation of cytochrome c in the cytosol” value is listed as “blocks”. For the same compound, the “gamma irradiation induced cardiolipin peroxidation” value in the data set with mouse embryonic cells [3] is recorded as “protects”. In addition, the “gamma irradiation induced superoxide generation” value with mouse embryonic cells [3] (10-min before or 1-h after irradiation) is “protects”. Besides, the “integration into cells and mitochondria compared with non-conjugated 4-amino-TEMPO” value in data set [4] is on record as “much more efficiently”.
